Measurements as given in patent US20260226071A1, “2, 4-DIANILINOPYRIMIDINE-BASED AURORA-A KINASE SELECTIVE DEGRADATION INDUCING COMPOUNDS” (UPPTHERA, INC., priority 2023, published 2026).

How the values were obtained:
NCI-H446 cell line = assay: Cell viability assay for NCI-H446 cell line; format: cell-based; conditions: Homo sapiens, NCI-H446, 120 h; H446 cells, 5 days culture, EZ-Cytox; read-out: IC50 value (Level)
Method in brief: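 H446 cells seeded 24 h before treatment with compound in 3-fold dilutions, 1000 to 0.15 nM, then cultured 5 days at 37 °C, 5% CO2 in RPMI 1640/10% FBS. Viability read with EZ-Cytox (4 h) as absorbance at 450 nm.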

Aurora kinase A (AURKA) = biological target: T1, Aurora kinase A (AURKA) (Homo sapiens, UniProt O14965); assay: Luciferase assay for AURKA in HeLa LgBit (AURKA-HiBit KI) cell line; format: cell-based; conditions: HeLa LgBit (AURKA-HiBit KI) cells, measured after 12 hours
T1 construct: endogenous in cells; host or cells: HeLa LgBit (AURKA-HiBit KI), CRISPR/Cas9 knock-in at the endogenous AURKA locus
T1 sequence (O14965 1-403): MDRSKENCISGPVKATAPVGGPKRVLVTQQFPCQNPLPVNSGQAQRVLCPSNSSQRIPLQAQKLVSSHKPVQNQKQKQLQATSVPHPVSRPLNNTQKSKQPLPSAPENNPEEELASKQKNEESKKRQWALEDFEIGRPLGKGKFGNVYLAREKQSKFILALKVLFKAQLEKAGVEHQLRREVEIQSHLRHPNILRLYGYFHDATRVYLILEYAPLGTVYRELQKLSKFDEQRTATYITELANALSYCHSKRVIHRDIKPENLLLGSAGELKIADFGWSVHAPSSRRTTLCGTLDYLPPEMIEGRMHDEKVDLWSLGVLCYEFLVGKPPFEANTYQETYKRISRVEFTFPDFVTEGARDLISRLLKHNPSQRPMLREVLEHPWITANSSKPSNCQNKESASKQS
Method in brief: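 HeLa cells stably expressing LgBit, with HiBit knocked in at the C-terminus of endogenous AURKA; 3×10^4 cells seeded, 18 h, then Endurazine substrate 2 h. Compounds tested at 10 nM or 100 nM; luminescence read at 470-480 nm after 12 h as real-time read-out.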

Row | SMILES | IC50 (NCI-H446 cell line) [nM] | luminescence value (Level) (Aurora kinase A (AURKA); 10 nM compound) | luminescence value (Level) (Aurora kinase A (AURKA); 100 nM compound)
1 | C[C@H]1CN(CCC2CCN(NC(=O)c3ccc(Nc4ncc(F)c(Nc5ccc(C(=O)Nc6ccccc6Cl)cc5)n4)cc3)CC2)CCN1c1ccc(C2CCC(=O)NC2=O)cc1 (stereo partly drawn) [Compound 114, N-(2-chlorophenyl)-4-((2-((4-((4-(2-((3S)-4-(4-(2,6-dioxopiperidin-3-yl)phenyl)-3-methylpiperazin-1-yl)ethyl)piperidin-1-yl)carbamoyl)phenyl)amino)-5-fluoropyrimidin-4-yl)amino)benzamide] | < 50 | A (A is <0.3) | A (A is <0.2)
2 | C[C@@H]1CN(CCC2CCN(NC(=O)c3ccc(Nc4ncc(F)c(Nc5ccc(C(=O)Nc6ccccc6Cl)cc5)n4)cc3)CC2)CCN1c1ccc(C2CCC(=O)NC2=O)cc1 (stereo partly drawn) [Compound 116, N-(2-chlorophenyl)-4-((2-((4-((4-(2-((3R)-4-(4-(2,6-dioxopiperidin-3-yl)phenyl)-3-methylpiperazin-1-yl)ethyl)piperidin-1-yl)carbamoyl)phenyl)amino)-5-fluoropyrimidin-4-yl)amino)benzamide] | < 50 | A (A is <0.3) | A (A is <0.2)
3 | COc1cc(N2CCN(CCC3CCN(NC(=O)c4ccc(Nc5ncc(F)c(Nc6ccc(C(=O)Nc7ccccc7Cl)cc6)n5)cc4)CC3)CC2)c(F)cc1NC1CCC(=O)NC1=O (stereo not drawn) [Compound 117, N-(2-chlorophenyl)-4-((2-((4-((4-(2-(4-(4-((2,6-dioxopiperidin-3-yl)amino)-2-fluoro-5-methoxyphenyl)piperazin-1-yl)ethyl)piperidin-1-yl)carbamoyl)phenyl)amino)-5-fluoropyrimidin-4-yl)amino)benzamide] | < 50 | A (A is <0.3) | A (A is <0.2)
4 | COc1cc(N2CCN(CCC3CCN(NC(=O)c4ccc(Nc5ncc(F)c(Nc6ccc(C(=O)Nc7ccccc7Cl)cc6)n5)cc4)CC3)CC2)c(F)cc1C1CCC(=O)NC1=O (stereo not drawn) [Compound 118, N-(2-chlorophenyl)-4-((2-((4-((4-(2-(4-(4-(2,6-dioxopiperidin-3-yl)-2-fluoro-5-methoxyphenyl)piperazin-1-yl)ethyl)piperidin-1-yl)carbamoyl)phenyl)amino)-5-fluoropyrimidin-4-yl)amino)benzamide] | 50 to 100 | B (B is 0.3 to 0.5) | A (A is <0.2)
